# Calls of active or inactive are those of the source. The rule behind the calls is not given here.
# Legend:
# Rattus norvegicus [1] = organism: Rattus norvegicus; assay: Inhibition of C-terminal Hsp90 in rat 50B11 cells assessed as increase in Hsp70 expression at 0.1 to 1 uM after 24 hrs by Western blot analysis; assay type: cell-based
# Rattus norvegicus [2] = organism: Rattus norvegicus; assay: Neuroprotective activity against H2O2-induced mitochondrial dysfunction in rat 50B11 cells assessed as improvement in mitochondrial biogenesis by measuring increase in maximal respiratory capacity pretreated for 24 hrs followed by H2O2 challenge and measured after 2 hrs; assay type: functional, cell-based
SMILES,inhibition (Rattus norvegicus [1]),Activity (Rattus norvegicus [2])
CO[C@@H]1[C@@H](O)[C@@H](O)[C@H](Oc2ccc(CCNC(C)=O)c3c4cccc(F)c4c(=O)n(C)c23)OC1(C)C,Active,Dose-dependent effect
CO[C@@H]1[C@@H](O)[C@@H](O)[C@H](Oc2ccc(CCNC(C)=O)c(-c3cccc(F)c3)c2)OC1(C)C,Active,Dose-dependent effect
